Among the data in patent US8580811B2 (Ligand Pharmaceuticals Incorporated, priority 2005, dated 2013) are Ki values, retold here.

Usually Ki stands for a measure of affinity in units of concentration, obtained from inhibition or displacement. Read a low Ki as higher affinity.

Some results are limits rather than exact numbers.

The target in this test is T1, human AR (Homo sapiens, UniProt P10275).
T1 construct: expressed in transfected cells; host or cells: COS-1 cells
T1 sequence (P10275 1-920): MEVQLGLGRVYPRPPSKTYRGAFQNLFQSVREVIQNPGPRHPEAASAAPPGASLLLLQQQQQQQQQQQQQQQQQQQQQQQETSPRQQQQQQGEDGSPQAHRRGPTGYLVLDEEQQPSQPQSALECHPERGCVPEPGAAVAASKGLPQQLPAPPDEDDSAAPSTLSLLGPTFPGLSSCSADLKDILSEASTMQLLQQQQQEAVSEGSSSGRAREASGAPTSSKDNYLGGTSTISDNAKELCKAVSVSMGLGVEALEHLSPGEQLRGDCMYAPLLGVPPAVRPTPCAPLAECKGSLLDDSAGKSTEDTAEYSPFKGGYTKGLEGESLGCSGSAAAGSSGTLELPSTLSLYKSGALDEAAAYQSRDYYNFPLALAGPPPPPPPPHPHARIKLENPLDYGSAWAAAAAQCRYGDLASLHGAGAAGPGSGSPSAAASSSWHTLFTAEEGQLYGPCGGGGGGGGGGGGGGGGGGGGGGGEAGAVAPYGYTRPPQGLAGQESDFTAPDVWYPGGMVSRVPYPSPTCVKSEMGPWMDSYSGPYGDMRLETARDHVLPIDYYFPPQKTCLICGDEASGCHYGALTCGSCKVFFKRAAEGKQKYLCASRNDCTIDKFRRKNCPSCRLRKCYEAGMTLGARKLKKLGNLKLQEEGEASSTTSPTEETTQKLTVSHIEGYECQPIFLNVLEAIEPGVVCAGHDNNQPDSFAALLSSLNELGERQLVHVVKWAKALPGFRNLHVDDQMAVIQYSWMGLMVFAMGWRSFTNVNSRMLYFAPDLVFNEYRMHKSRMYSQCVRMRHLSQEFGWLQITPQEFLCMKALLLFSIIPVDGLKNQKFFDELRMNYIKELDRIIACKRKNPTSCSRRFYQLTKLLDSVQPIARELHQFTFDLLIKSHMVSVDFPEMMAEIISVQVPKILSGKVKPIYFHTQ
The experiment in a line: IR Binding Assay: whole cell competitive binding of test compounds against 3H-DHT in COS-1 cells transfected with pRShAR. How it is done:
For the whole cell binding assay, COS-1 cells in 96-well microtiter plates including DMEM-10% FBS were transfected as described above with the following plasmid DNA: pRShAR (2 ng/well), pRS-β-Gal (50 ng/well) and pGEM (48 ng/well). Six hours after transfection, media was removed, the cells were washed with PBS and fresh media was added. The next day, the media was changed to DMEM-serum free to remove any endogenous ligand that might be complexed with the receptor in the cells.
After 24 hours in serum-free media, either a saturation analysis to determine the Kd for tritiated dihydrotestosterone (^3H-DHT) on human AR or a competitive binding assay to evaluate the ability of test compounds to compete with ^3H-DHT for AR was performed. […] For the competitive binding assay, media including 1 nM ^3H-DHT and test compounds in concentrations ranging from 10^−10 to 10^−6 M were added to the cells. Three replicates were used for each sample. After three hours at 37° C., an aliquot of the total binding media at each concentration of ^3H-DHT was removed to estimate the amount of free ^3H-DHT. The remaining media was removed, the cells were washed three times with PBS to remove unbound ligand, and cells were lysed with a Triton X-100-based buffer. The lysates were assayed for amount of bound ^3H-DHT and β-Gal activity using a scintillation counter or spectrophotometer, respectively.
For the saturation analyses, the difference between the total binding and the nonspecific binding, normalized by the β-Gal rate, was defined as specific binding. The specific binding was evaluated by Scatchard analysis to determine the Kd for ^3H-DHT. See e.g., D. Rodbard, “Mathematics and statistics of ligand assays: an illustrated guide” In: J. Langon and J. J. Clapp, eds., Ligand Assay, Masson Publishing U.S.A., Inc., New York, pp. 45-99, (1981), the disclosure of which is herein incorporated by reference. For the competition studies, the data was plotted as the amount of ^3H-DHT (% of control in the absence of test compound) remaining over the range of the dose-response curve for a given compound. […] The Ki values were determined by application of the Cheng-Prusoff equation to the IC50 values, where:
[formula] After correcting for non-specific binding, IC50 values were determined. […] The IC50 value was determined graphically from a log-logit plot of the data. The Ki values were determined by application of the Cheng-Prusoff equation to the IC50 values, the labeled ligand concentration and the Kd of the labeled ligand. see e.g., Cheng, Y. C. and Prusoff, W. H. Biochem. Pharmacol. 22:3099 (1973).
`O=c1cc(Cl)c2c3c(ccc2[nH]1)N(CC(F)(F)F)C1CCCC31` (racemic) [Compound 126, (±)-9-Chloro-3-(2,2,2-trifluoro-ethyl)-1,2-trimethylene-1,2,3,6-tetrahydro-pyrrolo[3,2-f]-quinolin-7-one]: the Ki was under 5 nM. With `CC1c2c(ccc3[nH]c(=O)cc(Cl)c23)N(CC(F)(F)F)C1C` (racemic) [Compound 127, (±)-9-Chloro-1,2-dimethyl-3-(2,2,2-trifluoro-ethyl)-1,2,3,6-tetrahydro-pyrrolo[3,2-f]quinolin-7-one], the Ki was 5 to 10 nM. In the case of `CCC1C(C)c2c(ccc3[nH]c(=O)cc(Cl)c23)N1CC(F)(F)F` (racemic) [Compound 128, (±)-9-Chloro-2-ethyl-1-methyl-3-(2,2,2-trifluoro-ethyl)-1,2,3,6-tetrahydro-pyrrolo[3,2-f]quinolin-7-one] it was over 10 nM; in that of `CCC1c2c(ccc3[nH]c(=O)cc(Cl)c23)N(CC(F)(F)F)C1C` (racemic) [Compound 129, (±)-9-Chloro-1-ethyl-2-methyl-3-(2,2,2-trifluoro-ethyl)-1,2,3,6-tetrahydropyrrolo[3,2-f]-quinolin-7-one], over 10 nM. Compound `CC1c2c(ccc3[nH]c(=O)cc(Cl)c23)N(CC(F)(F)F)C1c1ccccc1` (racemic) [Compound 130, (±)-9-Chloro-1-methyl-2-phenyl-3-(2,2,2-trifluoro-ethyl)-1,2,3,6-tetrahydro-pyrrolo[3,2-f]-quinolin-7-one] registered a Ki of 5 to 10 nM. The compound `CC1Cc2c(ccc3[nH]c(=O)cc(Cl)c23)N1CC(F)(F)F` (racemic) [Compound 131, (±)-9-Chloro-2-methyl-3-(2,2,2-trifluoro-ethyl)-1,2,3,6-tetrahydropyrrolo[3,2-f]quinolin-7-one] showed a Ki of over 10 nM.

Compound `CC1CN(CC(F)(F)F)c2ccc3[nH]c(=O)cc(Cl)c3c21` (racemic) [Compound 132, (±)-9-Chloro-1-methyl-3-(2,2,2-trifluoro-ethyl)-1,2,3,6-tetrahydro-pyrrolo[3,2-f]quinolin-7-one] came in with an inhibition constant (Ki) of under 5 nM. `O=c1cc(Cl)c2c3c(ccc2[nH]1)N(CC(F)(F)F)C1CCCCC31` (racemic) [Compound 133, (±)-9-Chloro-1,2-tetramethylene-3-(2,2,2-trifluoro-ethyl)-1,2,3,6-tetrahydro-pyrrolo[3,2-f]quinolin-7-one] yielded a Ki of under 5 nM. In the case of `CCN1CC(C)c2c1ccc1[nH]c(=O)cc(Cl)c21` (racemic) [Compound 134, (±)-9-Chloro-3-ethyl-1-methyl-1,2,3,6-tetrahydro-pyrrolo[3,2-f]quinolin-7-one] it was under 5 nM; in that of `CCN1c2ccc3[nH]c(=O)cc(Cl)c3c2C(C)C1C` (racemic) [Compound 135, (±)-9-Chloro-1,2-dimethyl-3-ethyl-1,2,3,6-tetrahydro-pyrrolo[3,2-f]quinolin-7-one], 5 to 10 nM. In the case of `CC1c2c(ccc3[nH]c(=O)cc(Cl)c23)N(C)C1C` (racemic) [Compound 136, (±)-9-Chloro-1,2,3-trimethyl-1,2,3,6-tetrahydro-pyrrolo[3,2-f]quinolin-7-one] it was over 10 nM; in that of `CCCN1c2ccc3[nH]c(=O)cc(Cl)c3c2C(C)C1C` (racemic) [Compound 137, (±)-9-Chloro-1,2-dimethyl-3-propyl-1,2,3,6-tetrahydro-pyrrolo[3,2-f]quinolin-7-one], under 5 nM. `CC1c2c(ccc3[nH]c(=O)cc(Cl)c23)N(CC(F)(F)Cl)C1C` (racemic) [Compound 138, (±)-9-Chloro-3-(2-chloro-2,2-difluoro-ethyl)-1,2-dimethyl-1,2,3,6-tetrahydro-pyrrolo[3,2-f]-quinolin-7-one] displayed a Ki of under 5 nM. In the case of `CC1c2c(ccc3[nH]c(=O)cc(Cl)c23)N(CCO)C1C` (racemic) [Compound 139, (±)-9-Chloro-1,2-dimethyl-3-(2-hydroxyethyl)-1,2,3,6-tetrahydro-pyrrolo[3,2-f]-quinolin-7-one] it was over 10 nM; in that of `CC1Nc2ccc3[nH]c(=O)cc(Cl)c3c2C1C` (racemic) [Compound 140, (±)-9-Chloro-1,2-dimethyl-1,2,3,6-tetrahydro-pyrrolo[3,2-f]quinolin-7-one], over 10 nM. In the case of `CC1c2c(ccc3[nH]c(=O)cc(Cl)c23)N(CC(C)(C)C)C1C` (racemic) [Compound 141, (±)-9-Chloro-1,2-dimethyl-3-(2,2-dimethylpropyl)-1,2,3,6-tetrahydro-pyrrolo[3,2-f]quinolin-7-one] it was 5 to 10 nM. Next, `CC1c2c(ccc3[nH]c(=O)cc(Cl)c23)N(CCc2cccs2)C1C` (racemic) [Compound 142, (±)-9-Chloro-1,2-dimethyl-3-(2-thien-2-yl-ethyl)-1,2,3,6-tetrahydro-pyrrolo[3,2-f]-quinolin-7-one]: under 5 nM. Compound `CC1c2c(ccc3[nH]c(=O)cc(Cl)c23)N(CC(F)F)C1C` (racemic) [Compound 143, (±)-9-Chloro-3-(2,2-difluoroethyl)-1,2-dimethyl-1,2,3,6-tetrahydro-pyrrolo[3,2-f]quinolin-7-one] displayed an inhibitory constant (Ki) of 5 to 10 nM. Next, `CC1c2c(ccc3[nH]c(=O)cc(Cl)c23)N(Cc2ccccc2)C1C` (racemic) [Compound 144, (±)-9-Chloro-1,2-dimethyl-3-phenylmethyl-1,2,3,6-tetrahydro-pyrrolo[3,2-f]quinolin-7-one]: 5 to 10 nM. Next, `CC1c2c(ccc3[nH]c(=O)cc(Cl)c23)N(CCC(F)(F)F)C1C` (racemic) [Compound 145, (±)-9-Chloro-1,2-dimethyl-3-(3,3,3-trifluoropropyl)-1,2,3,6-tetrahydro-pyrrolo[3,2-f]-quinolin-7-one]: under 5 nM; `CC1c2c(ccc3[nH]c(=O)cc(Cl)c23)N(CC(F)(F)F)C1c1cccc(Cl)c1` (racemic) [Compound 146, (±)-9-Chloro-2-(3-chlorophenyl)-1-methyl-3-(2,2,2-trifluoroethyl)-1,2,3,6-tetrahydro-pyrrolo[3,2-f]quinolin-7-one]: over 10 nM. Next, `CC1c2c(ccc3[nH]c(=O)cc(Cl)c23)N(CC(F)(F)F)C1c1ccc(C(F)(F)F)cc1` (racemic) [Compound 147, (±)-9-Chloro-1-methyl-2-(4-trifluoromethyl-phenyl)-3-(2,2,2-trifluoroethyl)-1,2,3,6-tetrahydro-pyrrolo[3,2-f]quinolin-7-one]: over 10 nM. The compound `COc1ccc(C2C(C)c3c(ccc4[nH]c(=O)cc(Cl)c34)N2CC(F)(F)F)cc1` (racemic) [Compound 148, (±)-9-Chloro-2-(4-methoxy-phenyl)-1-methyl-3-(2,2,2-trifluoroethyl)-1,2,3,6-tetrahydro-pyrrolo[3,2-f]quinolin-7-one] gave a Ki of 5 to 10 nM. The compound `CC1c2c(ccc3[nH]c(=O)cc(Cl)c23)N(CC(F)(F)F)C1c1ccc(F)cc1` (racemic) [Compound 149, (±)-9-Chloro-2-(4-fluoro-phenyl)-1-methyl-3-(2,2,2-trifluoroethyl)-1,2,3,6-tetrahydro-pyrrolo[3,2-f]quinolin-7-one] returned a Ki of 5 to 10 nM.
